# Patent US8975246B2, “Bile acid or bile salt fatty acid conjugates” (Galmed Research and Development Ltd., priority 2001, dated 2015)
# What was measured:
# Format in all cases: in vivo
# [1] = tested on: Inbred C57J/L male mice; assay: Serum cholesterol of mice on lithogenic diet
# Description: Inbred C57J/L male mice (Jackson Lab., Maine, USA) 4-6 weeks old weighing 20-25 gm were used. They were given their regular diet supplemented with (% w/w) Butter fat 15, Cholesterol 1, Cholic Acid 0.5, Corn Oil 2 (modified from Khanuia et al., Proc. Natnl. Acad. Sci. USA 1995; 92:7729-33) for 4-8 weeks (Lithogenic diet #2). Half of the group were given 3β-arachidylamido-7α,12α-dihydroxy-5β-cholan-24-oic acid at a dose of 150 mg/kg/day suspended in saline by intragastric gavage. The other half were similarly given an equal volume of saline. After 4-8 weeks the animals were anesthetized, heart blood was drawn for analysis. The liver and other organs were removed. Serum cholesterol levels were determined by autoanalyzer.
# Another group of C57 J/L male inbred mice (Jackson Laboratories, Maine, USA) 4-6 weeks old weighing 20-25 gm. were given a lithogenic diet (No. 2) for 8 weeks and then a regular diet for another 8 weeks. During the 8 weeks of the regular diet part of the animals were given 3β-arachidylamido-7α,12α-dihydroxy-5β-cholan-24-oic acid by intragastric gavage at a dose of 150 mg/kg/day. After a total of 16 weeks the animals were anesthetized, heart blood was drawn for analysis. Liver and other organs were removed. Serum cholesterol levels were analyzed as above. A third group of animals were given a regular diet throughout the 16 weeks and then similarly analyzed.
# [2] = tested on: Golden Syrian Male Hamsters; assay: Fatty liver histologic score, hamsters; conditions: Lithogenic diet 1 + BAFAC 150 mg/kg/day, 10 W
# Description: The presence of fatty liver was evaluated by a pathologist unaware of the treatments, scoring coded slides in a blinded manner.
# The scoring system was as follows:
# Golden Syrian Male Hamsters (Anilab, Rehovot, Israel) […] weighing 90-110 gm were used. They were fed a lithogenic diet (No 1). Half of the animals were given in addition 150 mg/kg/day of 3β-arachidylamido-7α,12α-dihydroxy-5β-cholan-24-oic acid. The compound was given suspended in saline, by intragastric gavage. Control animals were similarly given saline only. After 10 weeks the animals were anesthetized and sacrificed. The liver and other organs were removed and placed in formaline for histologic examination.
# [3] = tested on: Wistar male rats; assay: Fasting blood glucose, rats on regular or high fat diet; conditions: 4 weeks
# Description: (§1) The effects of BAFACs on fasting blood glucose were tested in 3 animal species: Hamsters, Rats and Mice. The animals were kept on regular or high fat diets (as specified). In each group half of the animals received a daily BAFAC dose (150 mg/kg) dispersed in 0.5 ml of saline by gavage. The other half received similarly, by gavage, an equal volume of saline only. All animals were kept on a 12 hr day/night cycle at 22° C. throughout the experiment. They had access to water ad libidum.
# Wistar male rats 4 weeks old (100-120 gm) were fed a regular chow diet or a high fat diet enriched with lard (10%), cholesterol (2.5%) and cholic acid (0.5%) (w/w). Blood and organ samples were obtained after sacrifice (in the fasting state) after 4 weeks of the trial. Half of the animals in each group were given BAFAC 150 mg/kg; the others were given an equal volume of saline. There were 7 rats in the control and test groups on a regular diet and 6 rats in each group given a high fat diet.
# The hamsters and rats on the high fat diets developed fatty liver (confirmed by chemical measurement of liver fat), a high fasting blood glucose, and represented models of NIDDM.
# ICR male mice, 4 weeks old (approx. 20 gm) were fed a regular diet. Streptozotocin 200 mg/kg was injected i.p. on the first day of the experiment. (This induced damage to the islet cells of the pancreas and simulated IDDM). […]
# [4] = tested on: ICR male mice; assay: Fasting blood glucose, streptozotocin treated mice (IDDM model); conditions: Streptozotocin 200 mg/kg i.p., regular diet, BAFAC 150 mg/kg/day by gavage, 16 days
# Description: as §1
# ICR male mice, 4 weeks old (approx. 20 gm) were fed a regular diet. Streptozotocin 200 mg/kg was injected i.p. on the first day of the experiment. (This induced damage to the islet cells of the pancreas and simulated IDDM). Fasting blood glucose was obtained from sacrificed animals after 16 days of the trial. There were 3 groups of 7 animals each. Controls—regular diet only. Streptozotocin (Stz) treated animals receiving saline only by gavage and streptozocin treated animals receiving 150 mg/kg/day of BAFAC by gavage. The BAFAC used in all these hyperglycemia studies was a conjugate of arachidic and cholic acid (at position 3) using an amide bond (C-20 BAFAC, Aramchol).
# [5] = tested on: human patients; assay: Human study: change in insulin; conditions: for Change from Baseline in Insulin, Max / Change from Baseline in Insulin, Mean / Change from Baseline in Insulin, Median / Change from Baseline in Insulin, Min: ITT
# Description: The effects of BAFACs on disorders associated with Fatty liver, insulin resistance and altered glucose metabolism were tested on 60 human patients. Experiments were subdivided to 2 dosage regimens: Aramchol 300 mg daily (high dose) and 100 mg daily (low dose) respectively for a total period time of 3 months. The Aramchol:placebo ratio is of 2:1 for the low dose arm, and 1:1 for the high dose arms.
# The study period included a 3 month treatment period with Aramchol low dose, or Aramchol high dose, or placebo, and a one month follow-up period. Aramchol was given daily orally. During the treatment period, all patients attended periodic […] (at first month) and subsequently monthly study-center visits in order to assess safety and efficacy of the treatment.
# The results are shown using two known in the art principle statistical evaluation on, Intention-To-Treat (ITT) and Per Protocol (PP) populations. The ITT principle asserts that the effect of a treatment policy can be best assessed by evaluation on the basis of the intention to treat a subject (i.e. the planned treatment regimen) rather than the actual treatment given. It has the consequence that subjects allocated to a treatment group should be followed up, assessed and analyzed as members of that group irrespective of their compliance to the planned course of treatment. […] Compliance covers such considerations as exposure to treatment, availability of measurements and absence of major protocol violations.
compound,measurement,setting,value
"CCCCCCCCCCCCCCCCCCCC(=O)N[C@H]1CC[C@@]2(C)[C@@H](C1)C[C@@H](O)[C@@H]1[C@@H]2C[C@H](O)[C@]2(C)[C@@H]([C@H](C)CCC(=O)O)CC[C@@H]12 [Aramchol, 3β-arachidylamido-7α,12α-dihydroxy-5β-cholan-24-oic acid]",Serum Cholesterol (mean + StD),"[1]; Lithogenic diet 2 + BAFAC II 150 mg/kg/day by gavage, 4 W",143 (19.8) mg %
same,Serum Cholesterol (mean + StD),"[1]; Lithogenic diet 2 + BAFAC II 150 mg/kg/day by gavage, 6 W",125 (10.8) mg %
same,Serum Cholesterol (mean + StD),"[1]; Lithogenic diet 2 + BAFAC II 150 mg/kg/day by gavage, 8 W",139 (0.7) mg %
same,Serum Cholesterol (mean + StD),"[1]; Lithogenic diet 2 for 8 W then regular diet 8 W with BAFAC II 150 mg/kg/day, total 16 W",65 (6.8) mg %
same,Fatty Liver Scores: number of animals with score 0,"[2]; n 7, 0 - No fatty liver",6
same,Fatty Liver Scores: number of animals with score 2,"[2]; n 7, 2 - Mild fatty liver",1
same,"Fatty Liver Score, mean","[2]; score 0 (no fatty liver) to 4 (severe, >50% of liver surface)",0.28
same,fasting blood glucose,"[3]; high fat diet (fatty liver), BAFAC 150 mg/kg by gavage, vs saline",markedly reduced
same,blood glucose,"[3]; normal (regular) diet, no hyperglycemia or fatty liver, BAFAC 150 mg/kg",no effect
same,fasting blood glucose,[4],markedly reduced
same,"Change from Baseline in Insulin, Max",[5]; Aramchol 100 mg/d oral,38.9
same,"Change from Baseline in Insulin, Mean",[5]; Aramchol 100 mg/d oral,5.6
same,"Change from Baseline in Insulin, Median",[5]; Aramchol 100 mg/d oral,2.5
same,"Change from Baseline in Insulin, Min",[5]; Aramchol 100 mg/d oral,−7.4
same,"Change from Baseline in Insulin, Max",[5]; Aramchol 300 mg/d oral,9.1
same,"Change from Baseline in Insulin, Mean",[5]; Aramchol 300 mg/d oral,−21.1
same,"Change from Baseline in Insulin, Median",[5]; Aramchol 300 mg/d oral,0.9
same,"Change from Baseline in Insulin, Min",[5]; Aramchol 300 mg/d oral,−367.5
same,basal insulin levels (in words),"[5]; tested subjects, Table 8",reduces basal insulin levels
